Assay results from ChEMBL document CHEMBL3421590, “Pancreatic lipase inhibitory constituents from Morus alba leaves and optimization for extraction conditions” (Bioorg Med Chem Lett, 2015).

What was measured:
[1] = molecular target: T1, Pancreatic triacylglycerol lipase (Sus scrofa) (UniProt P00591); assay: Inhibition of porcine pancreatic lipase using p-nitrophenylbutyrate as substrate assessed as formation of p-nitrophenol at 100 uM preincubated for 15 mins followed by substrate addition measured after 15 mins relative to control
T1 sequence (whole entry): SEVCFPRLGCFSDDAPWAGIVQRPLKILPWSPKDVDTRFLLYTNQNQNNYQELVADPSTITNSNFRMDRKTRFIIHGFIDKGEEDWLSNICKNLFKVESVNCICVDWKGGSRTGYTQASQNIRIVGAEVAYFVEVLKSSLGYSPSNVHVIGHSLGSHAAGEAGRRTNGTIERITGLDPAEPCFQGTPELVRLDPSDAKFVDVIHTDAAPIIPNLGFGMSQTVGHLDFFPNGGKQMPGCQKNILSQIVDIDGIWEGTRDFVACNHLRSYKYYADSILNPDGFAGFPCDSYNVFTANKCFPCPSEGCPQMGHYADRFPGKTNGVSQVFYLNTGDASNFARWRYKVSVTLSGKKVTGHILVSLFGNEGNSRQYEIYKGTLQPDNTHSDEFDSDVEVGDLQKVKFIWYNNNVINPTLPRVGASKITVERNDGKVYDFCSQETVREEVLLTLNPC

[2] = molecular target: T2, Pancreatic triacylglycerol lipase (Sus scrofa, UniProt P00591); assay: Inhibition of porcine pancreatic lipase using p-nitrophenylbutyrate as substrate assessed as formation of p-nitrophenol preincubated for 15 mins followed by substrate addition measured after 15 mins
T2 sequence (P00591 whole entry): T1 sequence (whole entry)

SMILES | inhibition [1] | IC50 [2]
Oc1cc(O)cc(-c2cc3cc4ccoc4cc3o2)c1 | 31.7% | > 70 µM
COc1ccc(-c2oc3cc(O)cc(O)c3c(=O)c2OC2O[C@H](CO)[C@@H](O)[C@H](O)[C@H]2O)cc1 (some centres undefined) | 12.1% | > 70 µM
O=C1CC(c2ccc(O)cc2O)Oc2cc(O)ccc21 (centres undefined) | 69.6% | 56.4 µM
Oc1cc(O)cc(-c2cc3ccc(O)c(O)c3o2)c1 | 55.9% | 63 µM
Oc1cc(O)cc(-c2cc3cc(O)c(O)cc3o2)c1 | 59.1% | 64.8 µM
CC1(C)C=Cc2cc3cc(-c4cc(O)cc(O)c4)oc3cc2O1 | 67.9% | 29.2 µM
O=c1c(O)c(-c2ccc(O)c(O)c2)oc2cc(O)cc(O)c12 | 36.3% | –
CC(C)=CCC/C(C)=C/Cc1c(O)cc(O)cc1-c1cc2ccc(O)cc2o1 [ALBAFURAN A] | 45.4% | > 70 µM
O=c1c(O[C@@H]2O[C@H](CO)[C@@H](O)[C@H](O)[C@H]2O)c(-c2ccc(O)cc2)oc2cc(O)cc(O)c12 [ASTRAGALIN] | 10.8% | > 70 µM
O=c1c(O[C@@H]2O[C@H](CO)[C@@H](O)[C@H](O)[C@H]2O)c(-c2ccc(O)c(O)c2)oc2cc(O)cc(O)c12 [ISOQUERCETIN] | 12.6% | > 70 µM
COc1cc(-c2oc3cc(O)cc(O)c3c(=O)c2O)ccc1O [ISORHAMNETIN] | 32.4% | > 70 µM
O=c1c(O)c(-c2ccc(O)cc2)oc2cc(O)cc(O)c12 [KAEMPFEROL] | 50.3% | > 70 µM
CC(C)=CCc1c(-c2ccc(O)cc2O)oc2c(CC=C(C)C)c(O)cc(O)c2c1=O [KUWANON C] | 72.5% | 18.6 µM
CC(C)=CCc1c(O)ccc(C(=O)/C=C/c2ccc(O)cc2O)c1O [MORACHALCONE A] | 73% | 6.2 µM
CC(C)=CCc1c(O)cc(-c2cc3ccc(O)cc3o2)cc1O [MORACIN C] | 64.8% | 32 µM
Oc1cc(O)cc(-c2cc3ccc(O)cc3o2)c1 [MORACIN M] | 21.5% | > 70 µM
CC(C)=CCc1cc2cc(-c3cc(O)cc(O)c3)oc2cc1O [MORACIN N] | 61.7% | 29.7 µM
O=c1cc(-c2ccc(O)cc2O)oc2cc(O)cc(O)c12 [NORARTOCARPETIN] | 45.3% | > 70 µM
Oc1cc(O)cc(/C=C/c2ccc(O)cc2O)c1 [OXYRESVERATROL] | 28.8% | > 70 µM
O=C1CC(c2ccc(O)cc2O)Oc2cc(O)cc(O)c21 (centres undefined) [STEPPOGENIN] | 4.4% | > 70 µM
